Assay results from US20230226021A1, “ORAL FORMULATIONS OF PYRROLIDINE DERIVATIVES” (ObsEva S.A., priority 2013, published 2023).

Experiment: Qualitative solubility/crystallisation tests on 15 mg scale
Assay type: physicochemical
Description: The E/Z ratio pre and post dry-flash remain in the range of 30/70 to 40/60. Furthermore, such an approach should be considered on the basis of the scale at which the operation has to be carried out. On a 20 L scale, this operation would not be a time saving approach.

Qualitative solubility, Dissolves in (DIPE, hot): 40 vol hot
Qualitative solubility, Dissolves in (IPA, hot): 4 vol hot
Qualitative solubility, Dissolves in (MIBK, hot): 4 vol hot
Qualitative solubility, Dissolves in (THF, cold): 4 vol cold
Qualitative solubility, Dissolves in / Comment (heptanes): insoluble in 20 vol
Qualitative solubility, Dissolves in (tBuOH, hot): 6 vol hot
Qualitative solubility, Dissolves in (toluene, cold): 2 vol cold
SMILES: CO/N=C1/C[C@@H](CO)N(C(=O)c2ccc(-c3ccccc3C)cc2)C1 [(3Z,5S), (3Z,5S)-5-(hydroxymethyl)-1-[(2′-methyl-1,1′-biphenyl-4-yl)carbonyl]pyrrolidin-3-one-O-methyloxime]
